This is an account of results in patent US11299485B2, “Thiophene derivative and use thereof” (FUJIMOTO CO., LTD., priority 2018, dated 2022).

Assay type in all cases: cell-based
One series deals with Kasumi-7 cells. Nature of the series: Human acute lymphoblastic leukemia cell line Kasumi-7 proliferation suppression test. The conditions noted are these: 72 h, compound 10 μM, 3 days, WST-8, read-out: cell survival rate (% of control) Kasumi-7. The text has this: Example 55: Human Acute Lymphoblastic Leukemia Cell Line Kasumi-7 Proliferation Suppression Test
Kasumi-7 cells (NIBIOHN, JCRB1401) were suspended in 20% fetal calf serum (Thermo Fisher Scientific, Inc.)-containing RPMI1640 medium (ATCC, hereinafter abbreviated as medium C), and diluted as appropriate with 0.4% trypan blue solution (Sigma-Aldrich Co. LLC.). The number of viable cells was counted with a hemocytometer (Funakoshi Co., Ltd.). A cell suspension obtained by diluting with medium C such that the value obtained was 1.3×10^5 cells/mL was dispensed into a Falcon 96 well flat bottom plate (Corning Incorporated) at 75 μL/well, and culture was started at 37° C. under 5% CO2 stream. The next day, a solution obtained by diluting 4 mM DMSO solution of the test compound 100-fold with medium C was added by 25 μL to each well (final concentration of test compound 10 μM). 25 μL of a solution obtained by diluting DMSO 100-fold with medium C was added to the control well. After culturing at 37° C. in a 5% CO2 stream for 3 days, the cell proliferation activity was measured according to the instruction manual attached to WST-8 Kit (KISHIDA CHEMICAL Co., Ltd.).

The next series relates to Pfeiffer cells. The series can be described thus: Human diffuse large B-cell lymphoma cell line Pfeiffer proliferation suppression test. To be noted: 144 h, compound 10 μM, 3 days + re-plating with compound 3 days, WST-8, read-out: cell survival rate (% of control) Pfeiffer. The text has this: Example 52: Human Diffuse Large B-Cell Lymphoma Cell Line Pfeiffer Proliferation Suppression Test
Pfeiffer cells (ATCC, CRL-2632) were suspended in medium B, and diluted as appropriate with 0.4% trypan blue solution (Sigma-Aldrich Co. LLC.). The number of viable cells was counted with a hemocytometer (Funakoshi Co., Ltd.). A cell suspension obtained by diluting with medium B such that the value obtained was 1.3×10^5 cells/mL was dispensed into a Falcon 96 well flat bottom plate (Corning Incorporated) at 75 μL/well, and culture was started at 37° C. under 5% CO2 stream. The next day, a solution obtained by diluting 4 mM DMSO solution of the test compound 100-fold with medium B was added by 25 μL to each well (final concentration of test compound 10 μM). 25 μL of a solution obtained by diluting DMSO 100-fold with medium B was added to the control well. After culturing at 37° C. in a 5% CO2 stream for 3 days, the cell culture medium was uniformly suspended with a multi channel pipette, 14 μL per well was transferred into another new Falcon 96 well flat bottom plate. A solution obtained by diluting 4 mM DMSO solution of the same test compound as the first time 400-fold with medium B was added by 86 μL to a total amount of 100 μL (final concentration of test compound 10 μM). After culturing at 37° C. in a 5% CO2 stream for 3 days, the cell proliferation activity was measured according to the instruction manual attached to WST-8 Kit (KISHIDA CHEMICAL Co., Ltd.).
In general terms: Tetrazolium assays rely on reduction of a dye to a coloured formazan, in cell work by metabolically active cells.

Series [1] relates to human peripheral blood mononuclear cells (PBMC). The series can be described thus: Cytotoxicity test using human peripheral blood mononuclear cells (PBMC). The conditions noted are these: compound 10 μg/mL, LPS, 24 hr, WST-1 or WST-8. The method, then:
Example 56: Cytotoxicity Test Using Human Peripheral Blood Mononuclear Cells (PBMC)
Peripheral blood of a healthy adult was collected in a Venoject II vacuum blood collection tube (Terumo, containing EDTA/2Na), and then diluted two-fold with an equal volume of OTSUKA NORMAL SALINE (Otsuka Pharmaceutical Co., Ltd.). The diluted blood was mixed with Lymphoprep (AXIS-SHIELD) in half the volume of the diluted blood, dispensed into a 15 mL conical tube, and centrifuged at room temperature for 20 min (2,100 rpm). The mononuclear cells accumulated at the interface between Lymphoprep and plasma was transferred to a 50 mL conical tube, diluted with OTSUKA NORMAL SALINE, and the mononuclear cells suspension was centrifuged at room temperature for 10 min (1,150 rpm) and then the supernatant was removed. The mononuclear cells fraction obtained as a precipitate was suspended in an appropriate amount of medium A, and diluted as appropriate with 0.4% trypan blue solution (Sigma-Aldrich Co. LLC.). The number of viable cells was counted with a hemocytometer (ERMA INC.). It was diluted with medium A such that the value obtained was 5×10^5 cells/mL. On the other hand, 37.5 μL of medium A, 2.5 μL of 0.4 mg/mL test compound solution (DMSO solution 10-fold diluted with medium A), and 10 μL of 10 μg/mL lipopolysaccharide (Sigma-Aldrich Co. LLC.) solution (diluted with medium A) were each added in advance to the same well of a Falcon 96-well flat bottom plate (Corning Incorporated), and the above-mentioned cell suspension was dispensed at 50 μL/well (final concentration of test compound 10 μg/mL). 2.5 μL of DMSO diluted 10-fold with medium A was added to the control well instead of the compound solution. After culturing at 37° C. in a 5% CO2 stream for 24 hr, the cell survival rate was measured using WST-1 (DOJINDO LABORATORIES) or WST-8 kit (KISHIDA CHEMICAL Co., Ltd.) and according to each instruction manual attached thereto.

The test system of the next series is MM.1S cells. The series can be described thus: Human myeloma cell line MM.1S proliferation suppression test. The conditions noted are these: MM1.S, 72 h, compound 10 μM, 3 days, WST-1 or WST-8, read-out: cell survival rate (% of control) MM.1S. The method, then: Example 51: Human Myeloma Cell Line MM.1S Proliferation Suppression Test
MM.1S cells (ATCC, CRL-2974) were suspended in 10% fetal calf serum (Thermo Fisher Scientific)-containing RPMI1640 medium (ATCC, hereinafter abbreviated as medium B), and diluted as appropriate with 0.4% trypan blue solution (Sigma-Aldrich Co. LLC.). The number of viable cells was counted with a hemocytometer (ERMA INC.). It was diluted with medium B such that the value obtained was 2×10^5 cells/mL. On the other hand, 50 μL of a solution obtained by diluting 4 mM DMSO solution of the test compound 200-fold with medium B was added to each well of a Falcon 96-well flat bottom plate (Corning Incorporated), and the above-mentioned cell suspension was dispensed at 50 μL/well (final concentration of test compound 10 μM). 50 μL of a solution obtained by diluting DMSO 200-fold with medium B was added to the control well. After culturing at 37° C. in a 5% CO2 stream for 3 days, the cell proliferation activity was measured using WST-1 (DOJINDO LABORATORIES) or WST-8 Kit (KISHIDA CHEMICAL Co., Ltd.) and according to each instruction manual attached thereto.

Molecules are shown by their SMILES.

`O=C1CCC(n2cc(-c3cscc3Br)nn2)C(=O)N1` (centres unmarked) [compound 1, 3-[4-(4-bromothiophen-3-yl)-1H-1,2,3-triazol-1-yl]piperidine-2,6-dione]: the viability at 10 µM with Kasumi-7 cells was 65%; with Pfeiffer cells it was 89%; with MM.1S cells, 33%. In series [1], the “cell survival rate (% of control) PBMC” value is 106 % of control.
Taken in the same sequence, the figures for `O=C1CCC(n2cc(-c3csc(CO)c3)nn2)C(=O)N1` (centres unmarked) [compound 9, 3-{4-[5-(hydroxymethyl)thiophen-3-yl]-1H-1,2,3-triazol-1-yl}piperidine-2,6-dione] were 90%, 100%, 77% and 129 % of control.
For `CCOc1cc(-c2cn(C3CCC(=O)NC3=O)nn2)cs1` (centres unmarked) [compound 24, 3-[4-(5-ethoxythiophen-3-yl)-1H-1,2,3-triazol-1-yl]piperidine-2,6-dione], in that order: 72%, 91%, 63% and 91 % of control.
Taken in the same sequence, the figures for `COC(=O)c1scc(-c2cn(C3CCC(=O)NC3=O)nn2)c1OC` (centres unmarked) [compound 16, methyl 4-[1-(2,6-dioxopiperidin-3-yl)-1H-1,2,3-triazol-4-yl]-3-methoxythiophene-2-carboxylate] were 90%, 98%, 85% and 90 % of control.
`CCCOc1cscc1-c1cn(C2CCC(=O)NC2=O)nn1` (centres unmarked) [compound 21, 3-[4-(4-propoxythiophen-3-yl)-1H-1,2,3-triazol-1-yl]piperidine-2,6-dione]: the results for the viability at 10 µM in the series with Kasumi-7 cells, in the series on Pfeiffer cells and with MM.1S cells were 79%, 106% and 75%, respectively. The “cell survival rate (% of control) PBMC” value in series [1] is reported as 116 % of control.
Taken in the same sequence, the figures for `CCCCOc1cscc1-c1cn(C2CCC(=O)NC2=O)nn1` (centres unmarked) [compound 25, 3-[4-(4-butoxythiophen-3-yl)-1H-1,2,3-triazol-1-yl]piperidine-2,6-dione] were 73%, 84%, 69% and 118 % of control.
Taken in the same sequence, the figures for `O=C1CCC(n2cc(-c3cscc3OCc3ccncc3)nn2)C(=O)N1` (centres unmarked) [compound 33, 3-{4-[4-(pyridin-4-ylmethoxy)thiophen-3-yl]-1H-1,2,3-triazol-1-yl}piperidine-2,6-dione] were 38%, 71%, 49% and 78 % of control.
For `Cl.O=C1CCC(n2cc(-c3cscc3OCc3ccc(CN4CCCC4)cc3)nn2)C(=O)N1` (centres unmarked) [compound 41, 3-(4-{4-[4-(pyrrolidin-1-ylmethyl)benzyloxy]thiophen-3-yl}-1H-1,2,3-triazol-1-yl)piperidine-2,6-dione hydrochloride], in that order: 26%, 72%, 32% and 110 % of control.
For the molecule `Cc1cscc1-c1cn(C2CCC(=O)NC2=O)nn1` (centres unmarked) [compound 7, 3-[4-(4-methylthiophen-3-yl)-1H-1,2,3-triazol-1-yl]piperidine-2,6-dione], the viability at 10 µM in the series with Kasumi-7 cells was 69%; in the series on Pfeiffer cells it was 101%; in the series with MM.1S cells, 57%. Also, the “cell survival rate (% of control) PBMC” value in series [1] is 101 % of control.
Consider `O=C1CCC(n2cc(-c3cscc3OCc3ccccn3)nn2)C(=O)N1` (centres unmarked) [compound 34, 3-{4-[4-(pyridin-2-ylmethoxy)thiophen-3-yl]-1H-1,2,3-triazol-1-yl}piperidine-2,6-dione], for which the viability at 10 µM is 45% with Kasumi-7 cells, 104% with Pfeiffer cells and 50% with MM.1S cells. The “cell survival rate (% of control) PBMC” value in series [1] is 95 % of control.
Taken in the same sequence, the figures for `Cl.O=C1CCC(n2cc(-c3cscc3OCc3ccc(CN4CCCCC4)cc3)nn2)C(=O)N1` (centres unmarked) [compound 42, 3-(4-{4-[4-(piperidin-1-ylmethyl)benzyloxy]thiophen-3-yl}-1H-1,2,3-triazol-1-yl)piperidine-2,6-dione hydrochloride] were 26%, 63%, 27% and 103 % of control.
With `O=C1CCC(n2cc(-c3ccsc3)nn2)C(=O)N1` (centres unmarked) [compound 2, 3-[4-(thiophen-3-yl)-1H-1,2,3-triazol-1-yl]piperidine-2,6-dione], the viability at 10 µM in the series on Kasumi-7 cells turned out to be 68%; in the series on Pfeiffer cells it was 80%; in the series on MM.1S cells, 50%. The “cell survival rate (% of control) PBMC” value in series [1] is 100 % of control.
Turning to `O=C1CCC(n2cc(-c3cscc3OCc3cccc(CN4CCOCC4)c3)nn2)C(=O)N1` (centres unmarked) [compound 39, 3-(4-{4-[3-(morpholinomethyl)benzyloxy]thiophen-3-yl}-1H-1,2,3-triazol-1-yl)piperidine-2,6-dione], the results for the viability at 10 µM with Kasumi-7 cells, in the series with Pfeiffer cells and in the series with MM.1S cells were 36%, 69% and 26%, respectively. In series [1], the “cell survival rate (% of control) PBMC” value is given as 98 % of control.
Taken in the same sequence, the figures for `O=C1CCC(n2cc(-c3cscc3OCc3ccccc3CN3CCOCC3)nn2)C(=O)N1` (centres unmarked) [compound 40, 3-(4-{4-[2-(morpholinomethyl)benzyloxy]thiophen-3-yl}-1H-1,2,3-triazol-1-yl)piperidine-2,6-dione] were 41%, 91%, 35% and 96 % of control.
